System: Desulfomonas and Citrobacter freundii
Test: Effect of sulfate addition on sulfate-reducing activity of soil samples (Table 4)
Method: Soil samples are treated with a culture of Desulfomonas (10^8 cells/mL) and Citrobacter freundii (10^4 cells/mL) at 30° C., with and without added sulfate. Sulfate, if added, is a 1:1 mixture by weight of ferric ammonium sulfate and magnesium sulfate. Sulfate-reducing activity is indicated by formation of black precipitate in the soil sample within 24 h after mixing the cultures with soil samples.

Substance: Sulfate
- sulfate-reducing activity of the mixed culture (in words) (100 ppm of sulfate): greatly improves sulfate-reducing activity of the mixed culture
- sulfate reduction (in words) (200 ppm of sulfate): permit reduction in all cases
